# Measurements: ChEMBL document CHEMBL4406913, “INCB050465 (Parsaclisib), a Novel Next-Generation Inhibitor of Phosphoinositide 3-Kinase Delta (PI3Kδ)” (ACS Med Chem Lett, 2019)
# Calls of active or inactive are those of the source. No cut-off for these calls is given here.
# Legend:
# Cytochrome P450 3A4 [1] = target: T1, Cytochrome P450 3A4 (Homo sapiens, UniProt P08684); experiment: Inhibition of CYP3A4 in human liver microsomes at 0.1 to 25 uM using midazolam as substrate by LC/MS analysis; format: ADME
# T1 sequence (P08684 whole entry, canonical isoform): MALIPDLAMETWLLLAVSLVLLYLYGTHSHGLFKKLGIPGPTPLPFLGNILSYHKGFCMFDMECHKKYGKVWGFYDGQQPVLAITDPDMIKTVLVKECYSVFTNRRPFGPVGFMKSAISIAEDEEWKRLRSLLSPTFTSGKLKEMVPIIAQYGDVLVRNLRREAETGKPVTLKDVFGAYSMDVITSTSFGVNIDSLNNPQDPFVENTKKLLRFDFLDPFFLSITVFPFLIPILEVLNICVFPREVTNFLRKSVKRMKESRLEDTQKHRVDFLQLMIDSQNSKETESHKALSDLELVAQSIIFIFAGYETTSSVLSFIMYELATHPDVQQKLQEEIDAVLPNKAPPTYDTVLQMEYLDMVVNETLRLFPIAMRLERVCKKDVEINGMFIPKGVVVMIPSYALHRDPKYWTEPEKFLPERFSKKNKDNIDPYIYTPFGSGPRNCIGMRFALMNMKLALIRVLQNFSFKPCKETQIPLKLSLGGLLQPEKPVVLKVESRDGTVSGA
# [2] = target: T2, Phosphatidylinositol 4,5-bisphosphate 3-kinase catalytic subunit delta isoform (Homo sapiens, UniProt O00329)
# T2 sequence (O00329 whole entry): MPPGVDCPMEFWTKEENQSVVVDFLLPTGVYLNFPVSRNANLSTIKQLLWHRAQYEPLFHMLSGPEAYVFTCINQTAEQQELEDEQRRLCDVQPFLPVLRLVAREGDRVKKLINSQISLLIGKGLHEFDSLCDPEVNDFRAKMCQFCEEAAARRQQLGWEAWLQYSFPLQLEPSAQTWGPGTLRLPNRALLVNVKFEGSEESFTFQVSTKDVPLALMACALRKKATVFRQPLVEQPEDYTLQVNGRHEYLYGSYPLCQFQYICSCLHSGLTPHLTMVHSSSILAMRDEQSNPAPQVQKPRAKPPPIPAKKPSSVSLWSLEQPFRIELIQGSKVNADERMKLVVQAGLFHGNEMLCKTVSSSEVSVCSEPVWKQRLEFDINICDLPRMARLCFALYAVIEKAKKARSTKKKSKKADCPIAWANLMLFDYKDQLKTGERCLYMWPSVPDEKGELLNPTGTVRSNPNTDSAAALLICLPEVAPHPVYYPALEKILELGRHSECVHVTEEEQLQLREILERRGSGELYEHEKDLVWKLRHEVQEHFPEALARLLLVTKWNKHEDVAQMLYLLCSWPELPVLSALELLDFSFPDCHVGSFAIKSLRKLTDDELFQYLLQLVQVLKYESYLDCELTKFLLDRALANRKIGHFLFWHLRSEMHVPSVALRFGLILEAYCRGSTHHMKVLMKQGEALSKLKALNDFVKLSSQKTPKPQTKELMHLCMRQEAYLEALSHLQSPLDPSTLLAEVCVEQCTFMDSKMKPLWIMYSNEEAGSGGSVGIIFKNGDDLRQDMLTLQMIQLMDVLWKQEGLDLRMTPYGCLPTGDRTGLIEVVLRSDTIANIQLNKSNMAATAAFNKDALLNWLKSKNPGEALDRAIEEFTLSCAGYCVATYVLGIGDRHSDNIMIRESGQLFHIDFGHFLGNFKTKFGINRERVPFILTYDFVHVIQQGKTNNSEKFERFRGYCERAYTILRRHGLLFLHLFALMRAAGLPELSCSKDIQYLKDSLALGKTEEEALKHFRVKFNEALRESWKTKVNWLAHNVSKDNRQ
# Description: Inhibition of PI3Kdelta (unknown origin) using D-myophosphatidylinositol 4,5-bisphosphate as substrate incubated for 120 mins by [gamma-33P]ATP based SPA assay
# [3] = Permeability across apical to basolateral side in human Caco2 cells at 50 uM incubated for 120 mins by LC/MS analysis; format: ADME, cell-based; conditions: Caco-2, read-out: permeability
# [4] = Oral bioavailability in rat at 4 mg/kg measured for 24 hrs by LC-MS/MS analysis; format: ADME, organism-based; conditions: in vivo
# [5] = Oral bioavailability in cynomolgus monkey at 4 mg/kg measured for 24 hrs by LC-MS/MS analysis; format: ADME, organism-based, Macaca fascicularis; conditions: in vivo
# [6] = Tmax in rat at 4 mg/kg, po measured for 24 hrs by LC-MS/MS analysis; format: ADME, organism-based; conditions: in vivo
# Pfeiffer [7] = experiment: Antitumor activity against human Pfeiffer cells xenografted in SCID mouse assessed as reduction in tumor growth at 1 mg/kg, po bid for 14 days measured 2-3 times weekly by digital caliper method; format: functional, organism-based
# [8] = target: Voltage-gated inwardly rectifying potassium channel KCNH2 (Homo sapiens, UniProt Q12809); experiment: Inhibition of human ERG expressed in HEK293 cells by voltage patch clamp assay; format: cell-based
# Chain of Voltage-gated inwardly rectifying potassium channel KCNH2 (Q12809 whole entry): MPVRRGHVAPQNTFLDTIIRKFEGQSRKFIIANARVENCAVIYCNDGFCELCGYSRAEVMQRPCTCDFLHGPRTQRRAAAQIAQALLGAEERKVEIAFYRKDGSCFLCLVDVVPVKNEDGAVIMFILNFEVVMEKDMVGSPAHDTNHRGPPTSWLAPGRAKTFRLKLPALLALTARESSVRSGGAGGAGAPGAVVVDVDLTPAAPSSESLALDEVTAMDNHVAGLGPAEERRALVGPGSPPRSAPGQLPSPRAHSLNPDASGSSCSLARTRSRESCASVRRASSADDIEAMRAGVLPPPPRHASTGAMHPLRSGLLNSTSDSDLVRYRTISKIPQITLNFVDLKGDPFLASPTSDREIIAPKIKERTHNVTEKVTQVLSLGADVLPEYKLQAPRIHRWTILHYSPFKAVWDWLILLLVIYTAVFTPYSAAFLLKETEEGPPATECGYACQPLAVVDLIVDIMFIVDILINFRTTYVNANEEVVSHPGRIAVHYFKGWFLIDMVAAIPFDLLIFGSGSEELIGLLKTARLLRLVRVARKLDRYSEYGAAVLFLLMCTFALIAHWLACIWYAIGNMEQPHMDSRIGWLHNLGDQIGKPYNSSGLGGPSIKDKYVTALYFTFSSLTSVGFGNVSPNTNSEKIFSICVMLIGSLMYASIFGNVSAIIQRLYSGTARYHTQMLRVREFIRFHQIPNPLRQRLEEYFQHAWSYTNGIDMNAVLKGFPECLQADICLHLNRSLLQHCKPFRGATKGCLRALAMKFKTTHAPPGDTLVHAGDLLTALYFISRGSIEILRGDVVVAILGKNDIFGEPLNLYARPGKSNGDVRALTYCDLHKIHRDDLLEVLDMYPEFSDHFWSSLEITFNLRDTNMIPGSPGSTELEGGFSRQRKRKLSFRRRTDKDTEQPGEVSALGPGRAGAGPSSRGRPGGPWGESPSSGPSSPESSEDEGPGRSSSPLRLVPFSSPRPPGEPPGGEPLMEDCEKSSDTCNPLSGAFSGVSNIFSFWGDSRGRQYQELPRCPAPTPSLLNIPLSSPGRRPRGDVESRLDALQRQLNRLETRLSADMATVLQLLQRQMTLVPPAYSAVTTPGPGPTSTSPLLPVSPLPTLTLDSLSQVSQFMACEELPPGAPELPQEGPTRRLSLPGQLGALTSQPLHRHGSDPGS
# [9] = Clearance in cynomolgus monkey at 2 mg/kg, iv measured for 24 hrs by LC-MS/MS analysis; format: ADME, organism-based, Macaca fascicularis; conditions: in vivo
# [10] = target: Phosphatidylinositol 4,5-bisphosphate 3-kinase catalytic subunit alpha isoform (Homo sapiens, UniProt P42336); experiment: Inhibition of PI3Kalpha (unknown origin) using D-myophosphatidylinositol 4,5-bisphosphate as substrate incubated for 120 mins by [gamma-33P]-ATP based scintillation counting method
# Chain of Phosphatidylinositol 4,5-bisphosphate 3-kinase catalytic subunit alpha isoform (P42336 whole entry, canonical isoform): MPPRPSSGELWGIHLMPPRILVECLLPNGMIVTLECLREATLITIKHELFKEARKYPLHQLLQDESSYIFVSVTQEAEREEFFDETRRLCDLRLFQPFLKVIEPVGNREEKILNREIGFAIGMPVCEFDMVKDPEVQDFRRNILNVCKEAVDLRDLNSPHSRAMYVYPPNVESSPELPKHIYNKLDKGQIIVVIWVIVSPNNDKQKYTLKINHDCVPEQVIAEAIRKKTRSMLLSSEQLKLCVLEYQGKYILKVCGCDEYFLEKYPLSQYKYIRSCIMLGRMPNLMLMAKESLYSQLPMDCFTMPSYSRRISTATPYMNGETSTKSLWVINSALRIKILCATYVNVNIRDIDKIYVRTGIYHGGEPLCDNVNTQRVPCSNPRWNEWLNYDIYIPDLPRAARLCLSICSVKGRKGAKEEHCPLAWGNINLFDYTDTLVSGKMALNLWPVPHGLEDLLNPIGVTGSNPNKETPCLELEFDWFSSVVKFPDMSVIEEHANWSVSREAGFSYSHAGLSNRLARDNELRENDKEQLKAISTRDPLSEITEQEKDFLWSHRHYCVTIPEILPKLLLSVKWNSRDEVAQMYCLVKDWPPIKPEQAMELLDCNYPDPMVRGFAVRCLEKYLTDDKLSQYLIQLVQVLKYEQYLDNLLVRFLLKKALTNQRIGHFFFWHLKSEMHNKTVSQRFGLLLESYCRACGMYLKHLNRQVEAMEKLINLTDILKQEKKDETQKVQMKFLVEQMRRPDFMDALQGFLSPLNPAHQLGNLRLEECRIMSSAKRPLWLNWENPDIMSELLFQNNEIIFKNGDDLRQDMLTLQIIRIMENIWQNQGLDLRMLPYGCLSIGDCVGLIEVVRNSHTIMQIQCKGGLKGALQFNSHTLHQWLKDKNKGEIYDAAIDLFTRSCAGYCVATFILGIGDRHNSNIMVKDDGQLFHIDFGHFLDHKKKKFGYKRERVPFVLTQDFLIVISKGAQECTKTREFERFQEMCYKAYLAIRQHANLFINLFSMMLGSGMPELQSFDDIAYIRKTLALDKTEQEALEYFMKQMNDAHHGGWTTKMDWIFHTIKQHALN
# [11] = Hepatotoxicity in Beagle dog measured on day 28; format: toxicity, Canis lupus familiaris; conditions: in vivo
# Cytochrome P450 3A4 [12] = target: T1, Cytochrome P450 3A4; experiment: Inhibition of CYP3A4 in human liver microsomes at 0.1 to 25 uM using testosterone as substrate by LC/MS analysis; format: ADME
# Pfeiffer [13] = experiment: Cytotoxicity against human Pfeiffer cells assessed as reduction in protein binding adjusted cell viability incubated for 4 days by [3H]-thymidine incorporation based liquid scintillation counter method; format: functional
# [14] = Hepatotoxicity in rat measured on day 28; format: toxicity; conditions: in vivo
# Cytochrome P450 2C9 = Cytochrome P450 2C9 (Homo sapiens, UniProt P11712); experiment: Inhibition of CYP2C9 in human liver microsomes at 0.1 to 25 uM using diclofenac as substrate by LC/MS analysis; format: ADME
# Chain of Cytochrome P450 2C9 (P11712 whole entry): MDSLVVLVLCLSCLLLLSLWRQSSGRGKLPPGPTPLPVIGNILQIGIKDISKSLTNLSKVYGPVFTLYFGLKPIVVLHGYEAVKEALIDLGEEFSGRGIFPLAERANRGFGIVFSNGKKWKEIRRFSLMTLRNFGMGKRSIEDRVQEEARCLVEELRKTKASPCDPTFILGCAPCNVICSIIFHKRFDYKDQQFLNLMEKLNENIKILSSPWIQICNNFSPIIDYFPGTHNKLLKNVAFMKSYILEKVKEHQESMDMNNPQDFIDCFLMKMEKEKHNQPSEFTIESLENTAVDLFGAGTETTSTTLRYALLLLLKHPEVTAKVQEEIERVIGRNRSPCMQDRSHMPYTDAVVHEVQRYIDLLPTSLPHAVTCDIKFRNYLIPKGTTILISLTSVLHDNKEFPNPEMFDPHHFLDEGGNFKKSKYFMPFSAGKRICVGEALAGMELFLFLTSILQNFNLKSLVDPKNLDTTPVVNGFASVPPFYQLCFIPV
# Pfeiffer [15] = experiment: In vivo inhibition of PI3Kdelta in human Pfeiffer cells xenografted in SCID mouse assessed as reduction in AKT phosphorylation at Ser473 residue in tumor lysates at 1 mg/kg, po bid for 14 days measured at 4 hrs post last dose by Western blot analysis; format: functional, organism-based; conditions: Neoplasm, Lysate
# [16] = target: T2, Phosphatidylinositol 4,5-bisphosphate 3-kinase catalytic subunit delta isoform; experiment: Inhibition of PI3Kdelta in human whole blood assessed as reduction in anti-IgE antibody-induced CD63 expression by flow cast kit method; format: tissue-based
# Cytochrome P450 2C19 = Cytochrome P450 2C19 (Homo sapiens, UniProt P33261); experiment: Inhibition of CYP2C19 in human liver microsomes at 0.1 to 25 uM using S-mephenytoin as substrate by LC/MS analysis; format: ADME
# Chain of Cytochrome P450 2C19 (P33261 whole entry): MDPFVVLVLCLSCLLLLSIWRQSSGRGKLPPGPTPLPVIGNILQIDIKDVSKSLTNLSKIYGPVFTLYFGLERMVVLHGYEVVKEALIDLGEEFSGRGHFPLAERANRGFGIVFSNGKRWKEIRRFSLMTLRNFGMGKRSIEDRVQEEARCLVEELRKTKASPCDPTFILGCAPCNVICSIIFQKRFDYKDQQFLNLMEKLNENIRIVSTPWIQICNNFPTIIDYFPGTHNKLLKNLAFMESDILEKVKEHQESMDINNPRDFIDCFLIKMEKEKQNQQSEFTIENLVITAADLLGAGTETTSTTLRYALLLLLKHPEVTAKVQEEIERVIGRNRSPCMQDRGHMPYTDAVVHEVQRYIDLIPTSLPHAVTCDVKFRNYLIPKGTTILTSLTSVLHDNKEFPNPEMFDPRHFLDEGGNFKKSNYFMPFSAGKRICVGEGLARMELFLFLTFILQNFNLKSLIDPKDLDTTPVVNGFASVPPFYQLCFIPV
# [17] = Intrinsic clearance in human liver microsomes at 1 uM measured upto 30 mins by LC/MS analysis; format: ADME, Microsome; conditions: read-out: CLH (converted)
# [18] = Tmax in cynomolgus monkey at 4 mg/kg, po measured for 24 hrs by LC-MS/MS analysis; format: ADME, organism-based, Macaca fascicularis; conditions: in vivo
# [19] = Volume of distribution at steady state in rat at 4 mg/kg, iv measured for 24 hrs by LC-MS/MS analysis; format: ADME, organism-based; conditions: in vivo, read-out: Vdss
# [20] = Oral bioavailability in Beagle dog at 4 mg/kg measured for 24 hrs by LC-MS/MS analysis; format: ADME, organism-based, Canis lupus familiaris; conditions: in vivo
# [21] = Clearance in Beagle dog at 2 mg/kg, iv measured for 24 hrs by LC-MS/MS analysis; format: ADME, organism-based, Canis lupus familiaris; conditions: in vivo
# [22] = target: T2, Phosphatidylinositol 4,5-bisphosphate 3-kinase catalytic subunit delta isoform; experiment: Inhibition of PI3Kdelta in human Ramos cells assessed as reduction in AKT phosphorylation incubated for 2 hrs by Alexa flour 488 based FACS analysis; format: cell-based
# [23] = Terminal half life in rat at 4 mg/kg, iv measured for 24 hrs by LC-MS/MS analysis; format: ADME, organism-based; conditions: in vivo, read-out: beta t1/2 (converted)
# [24] = Solubility of the compound at pH 7.4; format: physicochemical; conditions: buffer
# [25] = target: Phosphatidylinositol 4,5-bisphosphate 3-kinase catalytic subunit beta isoform (Homo sapiens, UniProt P42338); experiment: Inhibition of PI3Kbeta (unknown origin) using D-myophosphatidylinositol 4,5-bisphosphate as substrate incubated for 120 mins by [gamma-33P]-ATP based scintillation counting method
# Chain of Phosphatidylinositol 4,5-bisphosphate 3-kinase catalytic subunit beta isoform (P42338 whole entry, canonical isoform): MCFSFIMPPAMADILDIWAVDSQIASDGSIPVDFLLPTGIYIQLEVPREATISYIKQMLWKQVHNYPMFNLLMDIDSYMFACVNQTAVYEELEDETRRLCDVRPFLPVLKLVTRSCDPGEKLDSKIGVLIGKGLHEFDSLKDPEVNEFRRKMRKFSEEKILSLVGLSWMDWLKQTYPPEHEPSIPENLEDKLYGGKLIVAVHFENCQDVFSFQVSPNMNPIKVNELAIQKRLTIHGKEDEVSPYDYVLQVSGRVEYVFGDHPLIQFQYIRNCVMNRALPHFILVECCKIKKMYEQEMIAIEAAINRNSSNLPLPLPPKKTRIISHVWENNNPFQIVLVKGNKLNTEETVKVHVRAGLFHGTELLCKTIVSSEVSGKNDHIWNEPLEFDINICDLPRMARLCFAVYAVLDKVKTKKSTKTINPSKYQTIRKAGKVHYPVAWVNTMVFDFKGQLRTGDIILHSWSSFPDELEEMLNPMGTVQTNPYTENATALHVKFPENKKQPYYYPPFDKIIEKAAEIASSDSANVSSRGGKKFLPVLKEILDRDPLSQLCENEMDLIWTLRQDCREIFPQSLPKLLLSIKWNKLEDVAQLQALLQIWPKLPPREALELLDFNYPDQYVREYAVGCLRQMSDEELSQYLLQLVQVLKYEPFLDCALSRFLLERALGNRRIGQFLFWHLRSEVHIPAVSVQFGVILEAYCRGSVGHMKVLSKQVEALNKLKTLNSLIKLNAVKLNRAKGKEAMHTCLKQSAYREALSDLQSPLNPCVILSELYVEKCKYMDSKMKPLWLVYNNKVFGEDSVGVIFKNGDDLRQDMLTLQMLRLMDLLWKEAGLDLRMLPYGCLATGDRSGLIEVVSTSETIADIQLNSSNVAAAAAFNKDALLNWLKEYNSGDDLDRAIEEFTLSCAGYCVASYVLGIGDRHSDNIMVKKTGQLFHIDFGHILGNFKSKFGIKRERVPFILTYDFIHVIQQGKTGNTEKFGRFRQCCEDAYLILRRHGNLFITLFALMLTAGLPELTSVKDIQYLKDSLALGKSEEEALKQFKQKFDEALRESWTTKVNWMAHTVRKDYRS
# [26] = target: T2, Phosphatidylinositol 4,5-bisphosphate 3-kinase catalytic subunit delta isoform; experiment: Inhibition of PI3Kdelta (unknown origin) using D-myophosphatidylinositol 4,5-bisphosphate as substrate incubated for 120 mins by [gamma-33P]-ATP based scintillation counting method
smiles,measurement,setting,value
CCOc1c([C@H](C)n2nc(C)c3c(N)ncnc32)cc(Cl)c(F)c1[C@@H]1CNC(=O)C1 [PARSACLISIB],inhibition (INH),Cytochrome P450 3A4 [1],Not Active
same,IC50,[2],< 1 nM
same,"Papp A→B at 2 h, 50 µM",[3],1 ×10⁻⁶ cm/s
same,bioavailability,[4],74%
same,bioavailability,[5],79%
same,Tmax,[6],0.3 h
same,inhibition,Pfeiffer [7],Active
same,IC50,[8],75000 nM
same,CL,[9],5%
same,IC50,[10],> 20000 nM
same,Activity,[11],Non-Toxic
same,inhibition (INH),Cytochrome P450 3A4 [12],Not Active
same,IC50,Pfeiffer [13],4.2 nM
same,Activity,[14],Non-Toxic
same,inhibition (INH),Cytochrome P450 2C9,Not Active
same,inhibition,Pfeiffer [15],Active
same,IC50,[16],2 nM
same,inhibition (INH),Cytochrome P450 2C19,Not Active
same,CLint scaled at 1 µM,[17],11.7 mL/min/kg
same,Tmax,[18],2.5 h
same,Vd,[19],1.54 L/kg
same,bioavailability,[20],100%
same,CL,[21],2%
same,IC50,[22],1.1 nM
same,half-life,[23],4 h
same,solubility,[24],210 µg/mL
same,IC50,[25],> 20000 nM
same,IC50,[26],1.1 nM
